Patent US7070928B2, “Evolving new molecular function” (President and Fellows of Harvard College, priority 2001, dated 2006)

Legend:
[1] = biological target: Taq DNA polymerase (Thermus aquaticus, UniProt P19821); test: acceptance of modified nucleotide triphosphates in PCR; type: biochemical; settings: 30 PCR cycles, pUC19 template DNA, three natural deoxynucleotide triphosphates, gel electrophoresis (FIG. 51)
Excerpt: The ability of thermostable DNA polymerases suitable for PCR amplification to accept these modified nucleotide triphosphates containing metal-binding functionality. Non-natural nucleotide triphosphates were purified by ion exchange HPLC and added to PCR reactions containing Taq DNA polymerase, three natural deoxynucleotide triphosphates, pUC19 template DNA, and two DNA primers. Primers were chosen to generate PCR products ranging from 50 to 200 base pairs in length. Control PCR reactions contained the four natural deoxynucleotide triphosphates and no non-natural nucleotides. PCR reactions were analyzed by agarose or denaturing acrylamide gel electrophoresis. […] Previous findings on the acceptance of 7 by Taq DNA polymerase are in conflict, with-both non-acceptance (K. Sakthivel et al. Angew. Chem. Int. Ed. Engl. 1998, 37, 2872–2875) and acceptance (S. E. Lee et al. Nucleic Acids Res. 2001, 29, 1565–73) reported.

[2] = biological target: αvβ3 integrin receptor (Homo sapiens, UniProt P05106+P06756); settings: benchmark αvβ3 integrin antagonists; cited from earlier work
Sequence of αvβ3 integrin receptor (P06756 31-889 limits assumed): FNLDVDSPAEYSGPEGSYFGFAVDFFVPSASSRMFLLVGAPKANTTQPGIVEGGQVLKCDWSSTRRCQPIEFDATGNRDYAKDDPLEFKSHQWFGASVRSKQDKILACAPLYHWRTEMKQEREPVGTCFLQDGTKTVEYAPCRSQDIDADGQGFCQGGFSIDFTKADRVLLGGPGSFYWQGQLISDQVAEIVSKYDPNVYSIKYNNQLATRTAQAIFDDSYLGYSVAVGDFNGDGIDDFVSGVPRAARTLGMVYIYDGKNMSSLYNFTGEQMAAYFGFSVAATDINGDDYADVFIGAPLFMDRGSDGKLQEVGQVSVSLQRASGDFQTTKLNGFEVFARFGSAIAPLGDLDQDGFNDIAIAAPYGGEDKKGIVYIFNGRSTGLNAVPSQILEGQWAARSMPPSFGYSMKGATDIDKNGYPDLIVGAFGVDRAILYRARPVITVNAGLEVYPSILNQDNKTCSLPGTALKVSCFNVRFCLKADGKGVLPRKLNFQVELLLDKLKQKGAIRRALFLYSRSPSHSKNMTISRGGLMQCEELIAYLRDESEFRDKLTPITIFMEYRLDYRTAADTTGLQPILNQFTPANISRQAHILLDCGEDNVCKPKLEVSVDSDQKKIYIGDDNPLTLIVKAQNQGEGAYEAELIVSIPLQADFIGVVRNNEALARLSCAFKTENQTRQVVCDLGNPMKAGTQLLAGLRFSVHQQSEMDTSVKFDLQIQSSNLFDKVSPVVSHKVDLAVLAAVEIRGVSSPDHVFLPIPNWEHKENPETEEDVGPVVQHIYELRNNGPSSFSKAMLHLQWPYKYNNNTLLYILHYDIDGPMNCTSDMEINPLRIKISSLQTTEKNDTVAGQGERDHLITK
Sequence of αvβ3 integrin receptor (P06756 891-1048 partner limits assumed): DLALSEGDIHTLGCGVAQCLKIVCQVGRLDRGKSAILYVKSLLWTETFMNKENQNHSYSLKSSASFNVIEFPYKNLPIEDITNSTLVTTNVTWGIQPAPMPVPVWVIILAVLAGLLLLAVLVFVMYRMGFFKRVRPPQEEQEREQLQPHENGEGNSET
Sequence of αvβ3 integrin receptor (P05106 27-788): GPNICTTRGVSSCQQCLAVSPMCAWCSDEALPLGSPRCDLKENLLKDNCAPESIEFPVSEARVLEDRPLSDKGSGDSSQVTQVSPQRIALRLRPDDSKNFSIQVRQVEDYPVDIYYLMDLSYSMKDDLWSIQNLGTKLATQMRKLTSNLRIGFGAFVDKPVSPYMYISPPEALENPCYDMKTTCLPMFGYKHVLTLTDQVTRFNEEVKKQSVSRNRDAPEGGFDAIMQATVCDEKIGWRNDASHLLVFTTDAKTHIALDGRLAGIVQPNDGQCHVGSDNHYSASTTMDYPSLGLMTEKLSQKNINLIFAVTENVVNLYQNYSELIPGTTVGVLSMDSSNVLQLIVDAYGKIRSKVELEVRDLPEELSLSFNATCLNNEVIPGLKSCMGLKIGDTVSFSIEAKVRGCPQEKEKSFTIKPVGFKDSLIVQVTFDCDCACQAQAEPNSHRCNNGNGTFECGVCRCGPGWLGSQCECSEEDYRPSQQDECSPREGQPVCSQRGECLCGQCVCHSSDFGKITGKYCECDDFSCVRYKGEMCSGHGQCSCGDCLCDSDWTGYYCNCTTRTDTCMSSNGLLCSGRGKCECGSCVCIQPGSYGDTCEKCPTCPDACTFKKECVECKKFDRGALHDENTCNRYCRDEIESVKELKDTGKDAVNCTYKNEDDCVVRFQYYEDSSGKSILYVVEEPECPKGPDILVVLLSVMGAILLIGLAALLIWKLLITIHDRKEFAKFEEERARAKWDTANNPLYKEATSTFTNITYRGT

Sequence of Taq DNA polymerase (P19821 whole entry): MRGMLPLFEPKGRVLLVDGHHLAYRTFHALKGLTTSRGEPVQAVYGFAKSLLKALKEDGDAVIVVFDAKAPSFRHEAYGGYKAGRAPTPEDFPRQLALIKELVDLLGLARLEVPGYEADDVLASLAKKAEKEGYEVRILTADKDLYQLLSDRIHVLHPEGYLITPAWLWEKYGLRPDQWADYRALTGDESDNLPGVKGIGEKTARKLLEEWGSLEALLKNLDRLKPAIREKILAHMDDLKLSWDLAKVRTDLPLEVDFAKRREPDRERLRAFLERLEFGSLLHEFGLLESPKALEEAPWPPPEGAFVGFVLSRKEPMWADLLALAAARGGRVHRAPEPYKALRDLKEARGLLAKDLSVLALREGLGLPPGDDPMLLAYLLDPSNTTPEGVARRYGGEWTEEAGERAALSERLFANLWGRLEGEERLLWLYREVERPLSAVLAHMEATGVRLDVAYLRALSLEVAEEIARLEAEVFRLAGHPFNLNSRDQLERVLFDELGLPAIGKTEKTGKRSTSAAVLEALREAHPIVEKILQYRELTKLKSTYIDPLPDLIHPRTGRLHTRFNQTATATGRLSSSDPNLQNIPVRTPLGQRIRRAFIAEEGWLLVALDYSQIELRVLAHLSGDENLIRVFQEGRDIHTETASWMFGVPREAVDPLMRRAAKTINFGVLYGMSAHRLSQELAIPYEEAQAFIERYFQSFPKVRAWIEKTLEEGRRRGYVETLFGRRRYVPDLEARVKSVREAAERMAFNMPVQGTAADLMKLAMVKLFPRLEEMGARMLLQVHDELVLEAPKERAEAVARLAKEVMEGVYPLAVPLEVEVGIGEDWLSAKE

Molecule: O=C(NCC=Cc1cn(C2CC(O)C(COP(=O)(O)OP(=O)(O)OP(=O)(O)O)O2)c(=O)[nH]c1=O)C(F)(F)F (centres unmarked) [triphosphate of 23]
- incorporation by Taq DNA polymerase [1]: not an efficient polymerase substrate

Molecule: GRGDSPK [linear peptide, benchmark αvβ3 integrin antagonist]
- IC50 [2]: 210 nM
